Experiment [1] has as its system GBA, α-Synuclein, VPS35, Parkin, PINK, and DJ-1. Briefly: Protein levels of other PD-associated proteins in HEK 293T cells, Western blot. The class given is cell-based, human. Particulars: tagged proteins, 1 mM, 48 hours. On the procedure: FIGS. 2A-2T depicts that AICAr, the precursor of ATIC substrate, regulates LRRK2 expression levels and neuronal toxicity. FIGS. 2A and 2B depict the overexpressed LRRK2 levels in HEK 293T cells upon AICAr treatment. HEK293 cells were transfected with MYC-LRRK2 and treated with or without 1 mM AICAr for 48 hours. LRRK2 levels were analyzed by Western blot. FIGS. 2C and 2D depict the LRRK2 expression levels in SH-SY5Y cells upon AICAr treatment. Human neuroblastoma SH-SY5Y cells were treated with or without 1 mM AICAr for 48 hours. LRRK2 expression levels were analyzed by Western blot. FIGS. 2E and 2F depict the overexpressed (3-glucocerebrosidase (GCase) levels upon AICAr treatment. HEK 293T cells were transfected with V5-GCase and treated with or without 1 mM AICAr for 48 hours. GCase levels were analyzed by Western blot. FIGS. 2G-2N depict the LRRK2 expression levels in primary neurons (FIG. 2G and FIG. 2H), microglia (FIG. 2I and FIG. 2J), astrocytes (FIG. 2K and FIG. 2L) and human fibroblasts (FIG. 2M and FIG. 2N) upon AICAr treatment. Mouse primary cortical neurons, microglia, astrocytes or human fibroblasts from a health control were treated with or without 1 mM AICAr for 48 hours. LRRK2 expression levels were analyzed by Western blot. […] LRRK2 expression levels were analyzed by Western blot. […] Images were quantified by ImageJ software. […]
For orientation: Immunoblotting shows a protein as a band on a membrane.

For experiment [2], the system named is DCP2. Kind of experiment: DCP2 expression levels in SH-SY5Y cells, Western blot. It is filed as cell-based, human. As to conditions: 1 mM, 48 hours. As to the method: FIGS. 6A-6E depict that the decapping enzyme complex DCP1/2 is involved in LRRK2 mRNA decay. FIGS. 6A and 6B depict the DCP1A and DCP2 expression levels upon AICAr treatment. SH-SY5Y cells were treated with or without 1 mM AICAr for 48 hours. DCP1A and DCP2 expression levels were analyzed by Western blot. Images were quantified by ImageJ software. Data are mean±SEM, n=3 independent experiments. **p<0.01 by Student's t tests. FIGS. 6C and 6D depict the LRRK2 expression levels upon DCP1A or DCP2 overexpression. SH-SY5Y cells were transduced with lentiviruses carrying Flag-DCP1A or Flag-DCP2 for 48 hours. LRRK2 expression levels were analyzed by Western blot. Images were quantified by ImageJ software. Data are mean±SEM, n=3 independent experiments. *p<0.05 by Student's t tests. FIG. 6E depict LRRK2 mRNA decapping by DCP1A and DCP2. Recombinant DCP1A and DCP2 proteins were purified from HEK 293T cells and incubated with [α-32P]cap-labeled LRRK2 RNA. LRRK2 mRNA decapping was analyzed by one-dimensional thin layer chromatography.

Experiment [3] deals with LRRK2. Kind of experiment: LRRK2 levels in mouse primary neurons, microglia, astrocytes, Western blot. The class given is cell-based. As to conditions: 1 mM, 48 hours. As to the method:
FIGS. 2A-2T depicts that AICAr, the precursor of ATIC substrate, regulates LRRK2 expression levels and neuronal toxicity. FIGS. 2A and 2B depict the overexpressed LRRK2 levels in HEK 293T cells upon AICAr treatment. HEK293 cells were transfected with MYC-LRRK2 and treated with or without 1 mM AICAr for 48 hours. LRRK2 levels were analyzed by Western blot. FIGS. 2C and 2D depict the LRRK2 expression levels in SH-SY5Y cells upon AICAr treatment. Human neuroblastoma SH-SY5Y cells were treated with or without 1 mM AICAr for 48 hours. LRRK2 expression levels were analyzed by Western blot. FIGS. 2E and 2F depict the overexpressed (3-glucocerebrosidase (GCase) levels upon AICAr treatment. HEK 293T cells were transfected with V5-GCase and treated with or without 1 mM AICAr for 48 hours. GCase levels were analyzed by Western blot. FIGS. 2G-2N depict the LRRK2 expression levels in primary neurons (FIG. 2G and FIG. 2H), microglia (FIG. 2I and FIG. 2J), astrocytes (FIG. 2K and FIG. 2L) and human fibroblasts (FIG. 2M and FIG. 2N) upon AICAr treatment. Mouse primary cortical neurons, microglia, astrocytes or human fibroblasts from a health control were treated with or without 1 mM AICAr for 48 hours. LRRK2 expression levels were analyzed by Western blot. FIGS. 2O and 2P depict the overexpressed LRRK2 WT and pathogenic mutant levels upon AICAr treatment. […] LRRK2 expression levels were analyzed by Western blot. […] One day after injection, striatal tissues near the injection sites were collected and LRRK2 expression levels were analyzed by Western blot. Images were quantified by ImageJ software. […] FIG. 2T depicts the quantification of neuronal viability. Bars indicate the viability (n>100) for each transfection condition expressed as a percent of control neurons (eGFP with pcDNA3.1 empty vector). Data represent the mean±SEM from three independent experiments with n>100 cells quantified in each experiment. *p<0.05, ***p<0.001, ****p<0.0001 by one-way ANOVA followed by a Tukey's post hoc test.

The test system of experiment [4] is LRRK2-G2019S transgenic flies. Kind of experiment: LRRK2-induced DA neurodegeneration in LRRK2-G2019S transgenic Drosophila. The class given is in vivo. As to conditions: 9-week-old flies, fly food with 1 mM AICAr from posteclosion. The text has this:
Administration of AICAr into LRRK2 Drosophila. Ddc-GAL4 and UAS-GFP fly lines were obtained from Bloomington Stock Center. pUAST-attB-LRRK2 WT and G2019S were microinjected into Drosophila embryos (BestGene Inc.)^30. The resulting transgenic flies were crossed with Ddc-GAL4>UAS-GFP, which induces the co-expression of GFP, […] LRRK2 in dopamine and serotonin neurons. To study the effects of AICAr on LRRK2-induced dopaminergic neurodegeneration, flies were fed with regular fly food supplemented with 1 mM AICAr immediately at the posteclosion until 9-week-old.

Experiment [5] relates to LRRK2. Kind of experiment: Endogenous LRRK2 levels in SH-SY5Y cells, Western blot. The class given is cell-based, human.

As to `NC(=O)c1ncn([C@@H]2O[C@H](CO)[C@@H](O)[C@H]2O)c1N` [AICAr, 5-aminoimidazole-4-carboxamide riboside], in experiment [1], the “levels of other PD-associated proteins (GBA, α-Synuclein, VPS35, Parkin, PINK, DJ-1)” value is “no changes”. In addition, in experiment [2], the “endogenous levels of DCP2” value is recorded as “significantly increased”. In addition, in experiment [3] (mouse primary astrocytes), the “LRRK2 levels in astrocytes” value is reported as “remained unchanged”. The “LRRK2 levels in neurons” value in experiment [3] (mouse primary cortical neurons) is “significantly decrease”. The “LRRK2 levels in microglia” value in experiment [3] (mouse primary microglia) is reported as “significantly decrease”. Besides, the “LRRK2-GS induced DA neurodegeneration (DA neuron numbers)” value in experiment [4] is on record as “rescued”. Also, the “LRRK2 level, time and dose course” value in experiment [5] (1 mM, 24h-48h treatment) is “suppressed LRRK2 level dramatically”. Moreover, the “LRRK2 protein levels in AUF1-KO cells” value in experiment [5] (SH-SY5Y AUF1-KO cells, 1 mM, 48 hours) is “largely attenuated effects”. In addition, in experiment [5] (SH-SY5Y AUF1 KO, AUF1-GFP expressed back, 1 mM, 48 hours), the “AICAr effects on LRRK2 in AUF1 KO cells with stable AUF1-GFP expression” value is reported as “significantly rescued AICAr effects”. In experiment [5] (SH-SY5Y WT and AMPK KO, 1 mM, 48 hours), the “effects on LRRK2 protein levels in WT versus AMPK KO cell line” value is given as “similar”. For the same compound, the “endogenous LRRK2 levels” value in experiment [5] (SH-SY5Y cells, 1 mM, 48 hours) was “decreased”. The “LRRK2 protein levels despite MG132 or CQ” value in experiment [5] (SH-SY5Y, 1 mM AICAr with 0.35 μM MG132 or 5 μM CQ, 48 hours) is recorded as “still largely reduced”.

(Values after patent US20240075050A1, “Methods and Compositions for Treating Leucine Rich Repeat Kinase 2 (LRRK2)-Associated Disorder or Condition” (University of Connecticut, priority 2022, published 2024).)
